This passage reports zone of inhibition and MIC results from ChEMBL document CHEMBL3822364, “Synthesis, characterization and antimicrobial activity of novel Schiff base tethered boronate esters of 1,2-O-isopropylidene-α-d-xylofuranose” (2016).

≈ marks a conversion by molar mass, not a printed value.

The first experiment concerns Streptococcus mutans. The experiment is described as follows: Antibacterial activity against Streptococcus mutans MTCC 497 assessed as zone of inhibition at 100 ug/well measured after 24 hrs by agar well diffusion method. Type of experiment: functional. As to conditions: MTCC 497, 24 h, read-out: DIZ. In general terms: A growth-free zone around the sample is the usual read-out of agar diffusion tests.
Take `COc1ccc(/N=C/c2ccc(B3OC[C@H]4O[C@@H]5OC(C)(C)O[C@@H]5[C@H]4O3)cc2)cc1`: the zone of inhibition at 100 µg/disc stood at 12 mm.

As to `CC1(C)O[C@H]2O[C@@H]3COB(c4cccc(N)c4)O[C@@H]3[C@H]2O1`, the zone of inhibition at 100 µg/disc is 17 mm.

As to `CC1(C)O[C@H]2O[C@@H]3COB(c4ccc(/C=N/c5ccc(F)cc5)cc4)O[C@@H]3[C@H]2O1`, the zone of inhibition at 100 µg/disc was 21 mm.

The subject of a further experiment is Candida albicans. The experiment is described as follows: Antifungal activity against Candida albicans MTCC 3017 assessed as zone of inhibition at 100 ug/well measured after 48 hrs by agar well diffusion method. Type of experiment: functional. As to conditions: MTCC 3017, 48 h, read-out: DIZ.
Regarding `COc1ccc(/N=C/c2ccc(B3OC[C@H]4O[C@@H]5OC(C)(C)O[C@@H]5[C@H]4O3)cc2)cc1`, the zone of inhibition at 100 µg/disc turned out to be 17 mm.

As to `CC1(C)O[C@H]2O[C@@H]3COB(c4cccc(N)c4)O[C@@H]3[C@H]2O1`, the zone of inhibition at 100 µg/disc was found to be 13 mm.

Consider `CC1(C)O[C@H]2O[C@@H]3COB(c4ccc(/C=N/c5ccc(F)cc5)cc4)O[C@@H]3[C@H]2O1`, for which the zone of inhibition at 100 µg/disc is 16 mm.

The subject of the next experiment is Salmonella paratyphi. Nature of the experiment: Antibacterial activity against Salmonella paratyphi measured after 24 hrs by NCCL protocol based broth dilution method. It is filed as functional, Salmonella enterica subsp. enterica serovar Paratyphi A. Conditions: Salmonella enterica. For orientation: In broth dilution the organism is exposed to a series of concentrations in liquid medium.
`COc1ccc(/N=C/c2ccc(B3OC[C@H]4O[C@@H]5OC(C)(C)O[C@@H]5[C@H]4O3)cc2)cc1`: inhibition of growth (MIC) required 250 µg/mL (≈ 611 µM).

`CC1(C)O[C@H]2O[C@@H]3COB(c4cccc(N)c4)O[C@@H]3[C@H]2O1`: the lowest concentration to inhibit growth (MIC) was 500 µg/mL (≈ 1720 µM).

On to `CC1(C)O[C@H]2O[C@@H]3COB(c4ccc(/C=N/c5ccc(F)cc5)cc4)O[C@@H]3[C@H]2O1`, for which the MIC was 31.2 µg/mL (≈ 78.7 µM).

The next experiment concerns Salmonella typhi. Nature of the experiment: Antibacterial activity against Salmonella typhi measured after 24 hrs by NCCL protocol based broth dilution method. Type of experiment: functional, Salmonella enterica subsp. enterica serovar Typhi. Conditions: Salmonella enterica.
`COc1ccc(/N=C/c2ccc(B3OC[C@H]4O[C@@H]5OC(C)(C)O[C@@H]5[C@H]4O3)cc2)cc1` displayed a minimal inhibitory concentration (MIC) of 125 µg/mL (≈ 305 µM).

Regarding `CC1(C)O[C@H]2O[C@@H]3COB(c4cccc(N)c4)O[C@@H]3[C@H]2O1`, the MIC amounted to 500 µg/mL (≈ 1720 µM).

For `CC1(C)O[C@H]2O[C@@H]3COB(c4ccc(/C=N/c5ccc(F)cc5)cc4)O[C@@H]3[C@H]2O1`, the minimal inhibitory concentration (MIC) worked out at 62.5 µg/mL (≈ 157 µM).

For a further experiment, the system named is Salmonella typhi. The experiment is described as follows: Antibacterial activity against Salmonella typhi assessed as zone of inhibition at 100 ug/well measured after 24 hrs by agar well diffusion method. Type of experiment: functional, Salmonella enterica subsp. enterica serovar Typhi. As to conditions: Salmonella enterica, read-out: DIZ.
Consider `COc1ccc(/N=C/c2ccc(B3OC[C@H]4O[C@@H]5OC(C)(C)O[C@@H]5[C@H]4O3)cc2)cc1`, for which the zone of inhibition at 100 µg/disc came to 19 mm.

Regarding `CC1(C)O[C@H]2O[C@@H]3COB(c4cccc(N)c4)O[C@@H]3[C@H]2O1`, the zone of inhibition at 100 µg/disc is 11 mm.

For the molecule `CC1(C)O[C@H]2O[C@@H]3COB(c4ccc(/C=N/c5ccc(F)cc5)cc4)O[C@@H]3[C@H]2O1`, the zone of inhibition at 100 µg/disc came out at 20 mm.

In another experiment the test system is Micrococcus luteus. The experiment is described as follows: Antibacterial activity against Micrococcus luteus MTCC 106 assessed as zone of inhibition at 100 ug/well measured after 24 hrs by agar well diffusion method. Type of experiment: functional. As to conditions: MTCC 106, 24 h, read-out: DIZ.
`COc1ccc(/N=C/c2ccc(B3OC[C@H]4O[C@@H]5OC(C)(C)O[C@@H]5[C@H]4O3)cc2)cc1`: the zone of inhibition at 100 µg/disc was 11 mm.

`CC1(C)O[C@H]2O[C@@H]3COB(c4cccc(N)c4)O[C@@H]3[C@H]2O1`: the zone of inhibition at 100 µg/disc was 13 mm.

Regarding `CC1(C)O[C@H]2O[C@@H]3COB(c4ccc(/C=N/c5ccc(F)cc5)cc4)O[C@@H]3[C@H]2O1`, the zone of inhibition at 100 µg/disc was determined as 15 mm.

The next experiment concerns Salmonella paratyphi. Nature of the experiment: Antibacterial activity against Salmonella paratyphi assessed as zone of inhibition at 100 ug/well measured after 24 hrs by agar well diffusion method. As to conditions: Salmonella enterica, read-out: DIZ. Type of experiment: functional, Salmonella enterica subsp. enterica serovar Paratyphi A.
`COc1ccc(/N=C/c2ccc(B3OC[C@H]4O[C@@H]5OC(C)(C)O[C@@H]5[C@H]4O3)cc2)cc1`: the zone of inhibition at 100 µg/disc stood at 13 mm.

Take `CC1(C)O[C@H]2O[C@@H]3COB(c4cccc(N)c4)O[C@@H]3[C@H]2O1`: the zone of inhibition at 100 µg/disc stood at 13 mm.

For the molecule `CC1(C)O[C@H]2O[C@@H]3COB(c4ccc(/C=N/c5ccc(F)cc5)cc4)O[C@@H]3[C@H]2O1`, the zone of inhibition at 100 µg/disc stood at 22 mm.

Another experiment deals with Streptococcus mutans. Nature of the experiment: Antibacterial activity against Streptococcus mutans MTCC 497 measured after 24 hrs by NCCL protocol based broth dilution method. Type of experiment: functional. As to conditions: MTCC 497, 24 h.
`COc1ccc(/N=C/c2ccc(B3OC[C@H]4O[C@@H]5OC(C)(C)O[C@@H]5[C@H]4O3)cc2)cc1` gave an MIC of 250 µg/mL (≈ 611 µM).

Turning to `CC1(C)O[C@H]2O[C@@H]3COB(c4cccc(N)c4)O[C@@H]3[C@H]2O1`, the lowest concentration to inhibit growth (MIC) was 125 µg/mL (≈ 429 µM).

On to `CC1(C)O[C@H]2O[C@@H]3COB(c4ccc(/C=N/c5ccc(F)cc5)cc4)O[C@@H]3[C@H]2O1`, for which the MIC was 31.2 µg/mL (≈ 78.7 µM).

Another experiment has as its system Staphylococcus aureus. The experiment is described as follows: Antibacterial activity against Staphylococcus aureus MTCC 3160 measured after 24 hrs by NCCL protocol based broth dilution method. As to conditions: MTCC 3160, 24 h. Type of experiment: functional.
On to `COc1ccc(/N=C/c2ccc(B3OC[C@H]4O[C@@H]5OC(C)(C)O[C@@H]5[C@H]4O3)cc2)cc1`, for which the minimum inhibitory concentration (MIC) amounted to 500 µg/mL (≈ 1220 µM).

Turning to `CC1(C)O[C@H]2O[C@@H]3COB(c4cccc(N)c4)O[C@@H]3[C@H]2O1`, the MIC is 500 µg/mL (≈ 1720 µM).

`CC1(C)O[C@H]2O[C@@H]3COB(c4ccc(/C=N/c5ccc(F)cc5)cc4)O[C@@H]3[C@H]2O1` returned a minimal inhibitory concentration (MIC) of 62.5 µg/mL (≈ 157 µM).

Another experiment relates to Micrococcus luteus. Nature of the experiment: Antibacterial activity against Micrococcus luteus MTCC 106 measured after 24 hrs by NCCL protocol based broth dilution method. Type of experiment: functional. As to conditions: MTCC 106, 24 h.
In turn, `COc1ccc(/N=C/c2ccc(B3OC[C@H]4O[C@@H]5OC(C)(C)O[C@@H]5[C@H]4O3)cc2)cc1` registered an MIC of 250 µg/mL (≈ 611 µM).

Molecule `CC1(C)O[C@H]2O[C@@H]3COB(c4cccc(N)c4)O[C@@H]3[C@H]2O1` returned a minimum inhibitory concentration (MIC) of 250 µg/mL (≈ 859 µM).

On to `CC1(C)O[C@H]2O[C@@H]3COB(c4ccc(/C=N/c5ccc(F)cc5)cc4)O[C@@H]3[C@H]2O1`, for which the MIC was 62.5 µg/mL (≈ 157 µM).

The subject of a further experiment is Candida albicans. Nature of the experiment: Antifungal activity against Candida albicans MTCC 3017 measured after 48 hrs by NCCL protocol based broth dilution method. Type of experiment: functional. Conditions: MTCC 3017, 48 h.
`COc1ccc(/N=C/c2ccc(B3OC[C@H]4O[C@@H]5OC(C)(C)O[C@@H]5[C@H]4O3)cc2)cc1` displayed an MIC of 125 µg/mL (≈ 305 µM).

For the molecule `CC1(C)O[C@H]2O[C@@H]3COB(c4cccc(N)c4)O[C@@H]3[C@H]2O1`, it took 500 µg/mL (≈ 1720 µM) to inhibit growth (MIC).

Molecule `CC1(C)O[C@H]2O[C@@H]3COB(c4ccc(/C=N/c5ccc(F)cc5)cc4)O[C@@H]3[C@H]2O1` displayed a minimal inhibitory concentration (MIC) of 125 µg/mL (≈ 315 µM).

In another experiment the test system is Aspergillus fumigatus. Nature of the experiment: Antifungal activity against Aspergillus fumigatus MTCC 343 assessed as zone of inhibition at 100 ug/well measured after 48 hrs by agar well diffusion method. Type of experiment: functional. As to conditions: MTCC 343, 48 h, read-out: DIZ.
For `COc1ccc(/N=C/c2ccc(B3OC[C@H]4O[C@@H]5OC(C)(C)O[C@@H]5[C@H]4O3)cc2)cc1`, the zone of inhibition at 100 µg/disc is 0 mm.

For `CC1(C)O[C@H]2O[C@@H]3COB(c4cccc(N)c4)O[C@@H]3[C@H]2O1`, the zone of inhibition at 100 µg/disc turned out to be 0 mm.

`CC1(C)O[C@H]2O[C@@H]3COB(c4ccc(/C=N/c5ccc(F)cc5)cc4)O[C@@H]3[C@H]2O1`: the zone of inhibition at 100 µg/disc turned out to be 0 mm.

Another experiment relates to Klebsiella pneumoniae. The experiment is described as follows: Antibacterial activity against Klebsiella pneumoniae MTCC 3384 assessed as zone of inhibition at 100 ug/well measured after 24 hrs by agar well diffusion method. Type of experiment: functional. Conditions: MTCC 3384, 24 h, read-out: DIZ.
Turning to `COc1ccc(/N=C/c2ccc(B3OC[C@H]4O[C@@H]5OC(C)(C)O[C@@H]5[C@H]4O3)cc2)cc1`, the zone of inhibition at 100 µg/disc was 18 mm.

For `CC1(C)O[C@H]2O[C@@H]3COB(c4cccc(N)c4)O[C@@H]3[C@H]2O1`, the zone of inhibition at 100 µg/disc amounted to 12 mm.

As to `CC1(C)O[C@H]2O[C@@H]3COB(c4ccc(/C=N/c5ccc(F)cc5)cc4)O[C@@H]3[C@H]2O1`, the zone of inhibition at 100 µg/disc was found to be 21 mm.

The next experiment relates to Aspergillus fumigatus. Nature of the experiment: Antifungal activity against Aspergillus fumigatus MTCC 343 measured after 48 hrs by NCCL protocol based broth dilution method. Type of experiment: functional. As to conditions: MTCC 343, 48 h.
In the case of `COc1ccc(/N=C/c2ccc(B3OC[C@H]4O[C@@H]5OC(C)(C)O[C@@H]5[C@H]4O3)cc2)cc1`, the minimum inhibitory concentration (MIC) came to 500 µg/mL (≈ 1220 µM).

`CC1(C)O[C@H]2O[C@@H]3COB(c4cccc(N)c4)O[C@@H]3[C@H]2O1` came in with an MIC of 500 µg/mL (≈ 1720 µM).

The molecule `CC1(C)O[C@H]2O[C@@H]3COB(c4ccc(/C=N/c5ccc(F)cc5)cc4)O[C@@H]3[C@H]2O1` yielded an MIC of 250 µg/mL (≈ 629 µM).

The next experiment deals with Klebsiella pneumoniae. Nature of the experiment: Antibacterial activity against Klebsiella pneumoniae MTCC 3384 measured after 24 hrs by NCCL protocol based broth dilution method. It is filed as functional. Conditions: MTCC 3384, 24 h.
`COc1ccc(/N=C/c2ccc(B3OC[C@H]4O[C@@H]5OC(C)(C)O[C@@H]5[C@H]4O3)cc2)cc1` showed an MIC of 125 µg/mL (≈ 305 µM).

Turning to `CC1(C)O[C@H]2O[C@@H]3COB(c4cccc(N)c4)O[C@@H]3[C@H]2O1`, the MIC amounted to 500 µg/mL (≈ 1720 µM).

With `CC1(C)O[C@H]2O[C@@H]3COB(c4ccc(/C=N/c5ccc(F)cc5)cc4)O[C@@H]3[C@H]2O1`, it took 31.2 µg/mL (≈ 78.7 µM) to inhibit growth (MIC).

A further experiment concerns Staphylococcus aureus. Nature of the experiment: Antibacterial activity against Staphylococcus aureus MTCC 3160 assessed as zone of inhibition at 100 ug/well measured after 24 hrs by agar well diffusion method. It is filed as functional. As to conditions: MTCC 3160, 24 h, read-out: DIZ.
Turning to `COc1ccc(/N=C/c2ccc(B3OC[C@H]4O[C@@H]5OC(C)(C)O[C@@H]5[C@H]4O3)cc2)cc1`, the zone of inhibition at 100 µg/disc came to 11 mm.

For the molecule `CC1(C)O[C@H]2O[C@@H]3COB(c4cccc(N)c4)O[C@@H]3[C@H]2O1`, the zone of inhibition at 100 µg/disc amounted to 12 mm.

As to `CC1(C)O[C@H]2O[C@@H]3COB(c4ccc(/C=N/c5ccc(F)cc5)cc4)O[C@@H]3[C@H]2O1`, the zone of inhibition at 100 µg/disc is 18 mm.

For orientation: MIC means the smallest concentration in the dilution series that meets the test's criterion for growth inhibition. A higher MIC goes with a less susceptible organism.
